Where a name gives a salt, the structure may show the parent alone.

IC50 data for 45 compounds are collected here from US10000450B2, “N,N-substituted 3-aminopyrrolidine compounds useful as monoamines reuptake inhibitors” (OTSUKA PHARMACEUTICAL CO., LTD., priority 2005, dated 2018).

What all share (type): biochemical
Assay [1] addresses T1, Serotonin (5-HT) uptake into rat brain synaptosome (frontal cortex) (Rattus norvegicus, UniProt P31652).
T1 construct: used as crude synaptosome fractions; from tissue; host or cells: rat (male Wistar) frontal cortex, crude synaptosome fraction
In words: Inhibitory activity on serotonin (5-HT) uptake into rat brain synaptosome. The following applies: tritium-labeled 5-HT 8 nM uptake, 10 min at 37° C., read-out: 50% inhibittory concentration. As to the method: Pharmacological Test 1 Evaluation of Inhibitory Activity of Test Compound on Serotonin (5-HT) Uptake into Rat Brain Synaptosome
(§1) Male Wistar rats were decapitated and the brains were removed and the frontal cortices were dissected. The separated frontal cortices were homogenized in 20 volumes as weight of 0.32 M sucrose solution by a Potter-type homogenizer. The homogenate was centrifuged at 1000 g at 4° C. for 10 minutes, and the supernatant was then centrifuged at 20000 g at 4° C. for 20 minutes. The pellet was resuspended in incubation buffer (20 mM HEPES buffer (pH 7.4)) containing 10 mM glucose, 145 mM sodium chloride, 4.5 mM potassium chloride, 1.2 mM magnesium chloride, and 1.5 mM calcium chloride) and used as crude synaptosome fractions.
(§2) The uptake reaction mixture was suspended in a final volume of 200 μl containing pargyline (final concentration of 10 μM) and sodium ascorbate (final concentration of 0.2 mg/ml) in each well of 96-well-round-bottom-plate.
Solvent, unlabeled 5-HT, and serial diluted test compounds were added in each well, and synaptosome fraction of 1/10 volume of the final volume were added. After a 10 min preincubation at 37° C., the uptake was initiated by the addition of tritium-labeled 5-HT solution (final concentration of 8 nM) at 37° C. The uptake was stopped after 10 minutes by filtration under vacuum through a 96-well glass fiber filter plate. After washing the filter with cold physiological saline and drying up, Microscint-O (Perkin-Elmer) was added, and remained radioactivity on the filter was measured.
The total uptake activity with only solvent was determined as 100%, and the nonspecific uptake activity with unlabeled 5-HT (final concentration of 10 μM) was determined as 0%. The 50% inhibitory concentrations were calculated based on the concentrations of the test compounds and their inhibitory activities.

For assay [2], the target named is T2, Dopamine (DA) uptake into rat brain synaptosome (striatum) (Rattus norvegicus, UniProt P23977).
T2 construct: used as crude synaptosome fraction; from tissue; host or cells: rat (male Wistar) striatum, crude synaptosome fraction
Kind of assay: Inhibitory activity on dopamine (DA) uptake into rat brain synaptosome. The settings on record: tritium labeled DA 2 nM uptake, 10 min at 37° C., read-out: 50% inhibitory concentration. As for the experimental part:
Pharmacological Test 3 Evaluation of Inhibitory Activity of Test Compound on Dopamine (DA) into Rat Brain Synaptosome
as §1, with “striata” for “frontal cortices”, “fraction.” for “fractions.”
as §2
Solvent, unlabeled DA, and serial diluted test compounds were added in each well, and synaptosome fraction of 1/10 volume of the final volume were added. After 10-min preincubation at 37° C., the uptake was initiated by the addition of tritium labeled DA solution (final concentration of 2 nM) at 37° C. The uptake was stopped after 10 minutes by filtration under vacuum through a 96-well glass fiber filter plate. After washing the filter with cold physiological saline and drying up, Microscint-0 (Perkin-Elmer) was added and remained radioactivity on the filter was measured.
The uptake activity with only solvent was determined as 100%, and the nonspecific uptake activity with unlabeled DA (final concentration of 10 μM) was determined as 0%. The 50% inhibitory concentrations were calculated based on the concentrations of the test compounds and their inhibitory activities.

Assay [3] has as its target T3, Norepinephrine (NE) uptake into rat brain synaptosome (hippocampus) (Rattus norvegicus, UniProt Q63380).
T3 construct: used as crude synaptosome fraction; from tissue; host or cells: rat (male Wistar) hippocampus, crude synaptosome fraction
In words: Inhibitory activity on norepinephrine (NE) uptake into rat brain synaptosome. The following applies: tritium-labeled NE 12 nM uptake, 10 min at 37° C., read-out: 50% inhibitory concentration. As for the experimental part: Pharmacological Test 2 Evaluation of Inhibitory Activity of Test Compound on Norepinephrine (NE) Uptake into Rat Brain Synaptosome
as §1, with “hippocampi” for “frontal cortices”, “fraction.” for “fractions.”
The uptake reaction mixture was suspended in final volume of 200 μl containing pargyline (final concentration of 10 μM) and sodium ascorbate (final concentration of 0.2 mg/ml) in each well of 96-well-round-bottom-plate.
Solvent, unlabeled NE, and serial diluted test compounds were added to each well, and synaptosome fraction of 1/10 volume of the final volume were added. After 10 minutes preincubation at 37° C., the uptake was initiated by the addition of tritium-labeled NE solution (final concentration of 12 nM) at 37° C. The uptake was stopped after 10 minutes by filtration under vacuum through a 96-well glass fiber filter plate. After washing the filter with cold physiological saline and drying up, Microscint-0 (Perkin-Elmer) was added, and remained radioactivity on the filter was measured.
The total uptake activity with only solvent was determined as 100%, and the nonspecific uptake activity with unlabeled NE (final concentration of 10 μM) was determined as 0%. The 50% inhibitory concentrations were calculated based on the concentrations of the test compounds and their inhibitory activities.

T1 sequence (P31652 whole entry): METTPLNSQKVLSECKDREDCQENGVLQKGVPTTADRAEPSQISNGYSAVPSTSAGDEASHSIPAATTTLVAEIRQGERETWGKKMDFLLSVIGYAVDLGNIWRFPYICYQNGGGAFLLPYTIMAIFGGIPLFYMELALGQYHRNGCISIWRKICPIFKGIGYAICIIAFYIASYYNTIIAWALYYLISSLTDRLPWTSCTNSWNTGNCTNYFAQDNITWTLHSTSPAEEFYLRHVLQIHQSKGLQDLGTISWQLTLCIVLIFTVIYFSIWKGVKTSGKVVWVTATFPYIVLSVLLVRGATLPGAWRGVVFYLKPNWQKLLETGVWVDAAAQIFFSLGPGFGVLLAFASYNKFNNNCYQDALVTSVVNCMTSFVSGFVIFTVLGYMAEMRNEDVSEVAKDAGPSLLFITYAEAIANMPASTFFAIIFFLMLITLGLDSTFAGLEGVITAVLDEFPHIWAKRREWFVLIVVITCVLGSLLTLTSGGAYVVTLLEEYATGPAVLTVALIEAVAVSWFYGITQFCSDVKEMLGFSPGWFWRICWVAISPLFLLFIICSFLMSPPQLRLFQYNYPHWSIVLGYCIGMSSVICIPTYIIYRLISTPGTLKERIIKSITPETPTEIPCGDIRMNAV
T2 sequence (P23977 whole entry): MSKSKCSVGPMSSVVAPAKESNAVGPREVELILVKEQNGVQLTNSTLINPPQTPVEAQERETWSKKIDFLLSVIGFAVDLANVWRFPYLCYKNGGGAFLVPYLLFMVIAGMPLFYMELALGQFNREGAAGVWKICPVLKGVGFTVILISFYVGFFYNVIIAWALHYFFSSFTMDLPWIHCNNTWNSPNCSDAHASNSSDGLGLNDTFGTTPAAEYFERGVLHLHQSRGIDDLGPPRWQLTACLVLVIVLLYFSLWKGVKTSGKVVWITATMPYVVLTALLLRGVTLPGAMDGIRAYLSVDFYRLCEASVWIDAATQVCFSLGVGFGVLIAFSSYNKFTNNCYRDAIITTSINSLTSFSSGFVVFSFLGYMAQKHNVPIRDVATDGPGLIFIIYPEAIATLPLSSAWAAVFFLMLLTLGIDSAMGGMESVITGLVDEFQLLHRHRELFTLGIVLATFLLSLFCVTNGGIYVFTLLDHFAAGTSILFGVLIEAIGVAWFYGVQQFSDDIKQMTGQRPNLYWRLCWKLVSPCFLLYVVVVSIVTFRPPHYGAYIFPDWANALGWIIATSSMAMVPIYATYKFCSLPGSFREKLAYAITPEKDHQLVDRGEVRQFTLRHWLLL
T3 sequence (Q63380 1-617): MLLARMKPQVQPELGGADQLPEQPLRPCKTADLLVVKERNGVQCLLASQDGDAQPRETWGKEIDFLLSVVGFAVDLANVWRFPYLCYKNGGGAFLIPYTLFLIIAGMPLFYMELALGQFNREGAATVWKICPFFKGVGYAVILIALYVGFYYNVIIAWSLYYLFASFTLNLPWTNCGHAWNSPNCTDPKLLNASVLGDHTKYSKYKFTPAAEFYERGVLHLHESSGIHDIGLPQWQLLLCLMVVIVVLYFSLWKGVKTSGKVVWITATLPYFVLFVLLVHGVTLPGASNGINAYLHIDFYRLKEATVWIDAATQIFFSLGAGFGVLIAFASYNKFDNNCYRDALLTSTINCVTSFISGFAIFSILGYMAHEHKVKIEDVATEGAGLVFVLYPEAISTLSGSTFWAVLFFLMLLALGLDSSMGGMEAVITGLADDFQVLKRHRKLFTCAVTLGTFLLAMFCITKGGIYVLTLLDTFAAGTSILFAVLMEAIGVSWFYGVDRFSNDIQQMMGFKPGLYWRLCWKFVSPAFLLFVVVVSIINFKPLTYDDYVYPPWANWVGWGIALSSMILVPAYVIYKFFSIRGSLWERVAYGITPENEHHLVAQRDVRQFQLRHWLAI

Consider `Fc1ccc(N(c2ccc3ccsc3n2)[C@H]2CCNC2)cc1` [Example 899], for which, in assay [1], the IC50 is 0.7 nM.
`c1cc(N(c2ccc3sccc3c2)[C@H]2CCNC2)cs1` [Example 1002]: the IC50 in assay [2] was 32.9 nM; in assay [3] it was 0.1 nM.
For the compound `Cc1cc(N(c2cnc3ccccc3c2)[C@H]2CCNC2)ccc1F` [Example 151], the IC50 in assay [1] came out at 0.8 nM.
With `Cc1ccc(N(c2cccc(F)c2)[C@H]2CCNC2)cc1Cl` [Example 98], in assay [3], the IC50 was found to be 0.3 nM.
With `Cc1cc(N(c2ccccc2)[C@H]2CCNC2)ccc1F` [Example 46], the IC50 in assay [2] is 9.3 nM.
Consider `Fc1ccc(N(c2ccc3cnsc3c2)[C@H]2CCNC2)cc1` [Example 901], for which the IC50 in assay [1] worked out at 0.7 nM.
On to `Fc1ccc(N(c2ccccc2)[C@H]2CCNC2)cc1Cl` [Example 44], for which the IC50 came out at 8.7 nM in assay [2] and 0.4 nM in assay [3].
Regarding `Fc1ccc(N(c2ccccn2)[C@H]2CCNC2)cc1Cl` [Example 154], the IC50 in assay [2] was 9.2 nM; in assay [3], 0.2 nM; in assay [1], 0.8 nM.
For the compound `CSc1ccc(N(c2ccccc2)[C@H]2CCNC2)cc1` [Example 19], the IC50 in assay [1] was found to be 0.7 nM.
As to `Fc1ccc(N(c2ccc3ncsc3c2)[C@H]2CCNC2)cc1Cl` [Example 989], the IC50 in assay [2] stood at 5.8 nM; in assay [3], 0.3 nM; in assay [1] it was 0.6 nM.
Consider `CC(C)(O)CN(c1ccc(F)c(Cl)c1)[C@H]1CCNC1` [Example 967], for which the IC50 in assay [2] stood at 25.4 nM; in assay [3] it was 0.1 nM; in assay [1], 0.9 nM.
For `c1cc2ccc(N(c3ccc4ccsc4c3)[C@H]3CCNC3)cc2s1` [Example 300], the IC50 in assay [2] was 9.6 nM.
Take `c1cc2cc(N(c3ccc4sccc4c3)[C@H]3CCNC3)ccc2s1` [Example 299]: the IC50 in assay [2] is 48.6 nM.
Regarding `Clc1ccc(N(c2cccnc2)[C@H]2CCNC2)cc1Cl` [Example 242], in assay [3], the IC50 came out at 0.2 nM.
With `c1ccc(N(c2ccc3cnsc3c2)[C@H]2CCNC2)cc1` [Example 900], the figures for the IC50 in assay [3] and in assay [1] were 0.6 nM and 1.5 nM, respectively.
In the case of `O=C1CCc2ccc(N(c3ccc(F)cc3)[C@H]3CCNC3)cc2N1` [Example 917], the IC50 in assay [1] worked out at 0.7 nM.
Consider `N#Cc1ccc(N(c2ccc(F)c(Cl)c2)[C@H]2CCNC2)cn1` [Example 268], for which the figures for the IC50 in assay [2] and in assay [1] were 6.5 nM and 0.8 nM, respectively.
Take `Fc1ccc(N(CCCCOc2ccccn2)[C@H]2CCNC2)cc1Cl` [Example 5, (3-chloro-4-fluorophenyl)-[4-(pyridin-2-yloxy)butyl]-(S)-pyrrolidin-3-ylamine difumarate]: in assay [1], the IC50 was 1.6 nM.
For the compound `N#Cc1ccc(-c2cncc(N(c3ccc(F)c(Cl)c3)[C@H]3CCNC3)c2)cc1` [Example 272], in assay [2], the IC50 came to 30 nM.
Regarding `Cc1ccc(N(c2ccccc2)[C@H]2CCNC2)cc1` [Example 22], the IC50 in assay [3] stood at 2.2 nM.
In the case of `Clc1ccc(N(c2cccnc2)[C@H]2CCNC2)cc1Cl` [Example 256], the IC50 in assay [3] came out at 0.1 nM.
For the compound `Fc1cncc(N(c2ccc3sccc3c2)[C@H]2CCNC2)c1` [Example 951], the IC50 stood at 29.8 nM in assay [2] and 0.5 nM in assay [3].
Regarding `c1cncc(N(c2ccc3ccsc3c2)[C@H]2CCNC2)c1` [Example 289], the IC50 came out at 30.6 nM in assay [2] and 0.1 nM in assay [3].
`N#Cc1ccc(N(c2ccc(F)c(Cl)c2)[C@H]2CCNC2)cc1` [Example 73]: the IC50 in assay [2] turned out to be 9 nM; in assay [1], 0.6 nM.
Regarding `Cc1cc2ccc(N(c3ccccc3)[C@H]3CCNC3)cc2s1` [Example 903], the IC50 in assay [3] was 0.7 nM; in assay [1] it was 1.2 nM.
Regarding `N#Cc1ccc(N(c2ccc(Cl)c(Cl)c2)[C@H]2CCNC2)cn1` [Example 270], in assay [2], the IC50 was 8.2 nM.
For the compound `Fc1ccc(N(C2CCCC2)[C@H]2CCNC2)cc1Cl` [Example 306], the IC50 came to 0.8 nM in assay [3] and 1.4 nM in assay [1].
`Clc1ccc(N(c2ccncc2)[C@H]2CCNC2)cc1Cl` [Example 273]: the IC50 in assay [2] turned out to be 32.9 nM.
As for `Fc1ccc(N(c2cnc3ccccc3c2)[C@H]2CCNC2)cc1Cl` [Example 149], the IC50 in assay [1] was 1.2 nM.
On to `Fc1ccc(N(c2ccccc2)[C@H]2CCNC2)cc1` [Example 20], for which the IC50 in assay [3] is 0.8 nM.
Take `Cn1ncc2ccc(N(c3ccc(F)c(Cl)c3)[C@H]3CCNC3)cc21` [Example 990]: the IC50 in assay [2] is 26 nM; in assay [3] it was 0.8 nM.
On to `Cn1c(=O)ccc2cc(N(c3ccc(F)c(Cl)c3)[C@H]3CCNC3)ccc21` [Example 912], for which the figures for the IC50 in assay [2] and in assay [1] were 30.2 nM and 1 nM, respectively.
Consider `COc1cccc(N(c2ccc(F)c(Cl)c2)[C@H]2CCNC2)n1` [Example 223], for which the IC50 in assay [3] came out at 0.2 nM.
For `c1ccc(N(c2ccc3sccc3c2)[C@H]2CCNC2)cc1` [Example 116], the IC50 in assay [2] amounted to 8.9 nM; in assay [3], 0.1 nM.
In the case of `Fc1ccc(N(c2ccc(Cl)nc2)[C@H]2CCNC2)cc1Cl` [Example 244], the IC50 in assay [3] came out at 0.5 nM.
On the same count and under the same terms, to `c1ccc2cc(N(c3ccsc3)[C@H]3CCNC3)ccc2c1` [Example 1000] belongs 0.4 nM.
Take `c1cc(N(c2ccc3ccsc3c2)[C@H]2CCNC2)cs1` [Example 1001]: the values for the IC50 in assay [2] and in assay [3] were 16.4 nM and 0.1 nM, respectively.
On to `c1ccc(N(c2ccc3sccc3n2)[C@H]2CCNC2)cc1` [Example 934], for which the IC50 in assay [1] stood at 1.8 nM.
Consider `[O-][n+]1cccc(N(c2ccc(F)c(Cl)c2)[C@H]2CCNC2)c1` [Example 896], for which the IC50 in assay [3] was 0.9 nM; in assay [1] it was 2.5 nM.
As to `c1cncc(N(c2ccc3sccc3c2)[C@H]2CCNC2)c1` [Example 294], the IC50 in assay [2] is 24 nM.
Turning to `CCN1CCN(c2ccc(N(c3ccc(F)c(Cl)c3)[C@H]3CCNC3)nc2)CC1` [Example 201], in assay [2], the IC50 stood at 4.3 nM.
On the same count and under the same terms, then `Fc1ccc(N(c2ccc(N3CCNCC3)cn2)[C@H]2CCNC2)cc1Cl` [Example 200], with 3.8 nM.
For the compound `Clc1ccc(N(c2ccccn2)[C@H]2CCNC2)cc1Cl` [Example 188], in assay [3], the IC50 was found to be 0.1 nM.
As for `Clc1ccc(N(c2ccccc2)C2CCNC2)cc1Cl` (stereo not drawn) [Example 1, (3,4-dichlorophenyl)phenylpyrrolidin-3-ylamine dihydrochloride], in assay [3], the IC50 was 0.6 nM.
Consider `Fc1ccc(N(c2nccs2)[C@H]2CCNC2)cc1Cl` [Example 131], for which the figures for the IC50 in assay [3] and in assay [1] were 0.2 nM and 0.6 nM, respectively.
